Source: publication PMC9101642 (Molecules, 2022)
Read-outs that look alike come from different tables or passages of the source. Marks after values point to notes of the source that are not given here.

Legend:
ERα [1] = molecular target: T1, ERα (Homo sapiens, UniProt P03372); experiment: Fluorescence polarization competition assay: antagonistic potency and relative binding affinity; conditions: for IC50: concentration that antagonizes 50% of ERα signaling activity, read-out: ERα (IC50 nM); for logRBA ERα: log of % relative binding affinity, estradiol = 100%
T1 sequence (P03372 1-595): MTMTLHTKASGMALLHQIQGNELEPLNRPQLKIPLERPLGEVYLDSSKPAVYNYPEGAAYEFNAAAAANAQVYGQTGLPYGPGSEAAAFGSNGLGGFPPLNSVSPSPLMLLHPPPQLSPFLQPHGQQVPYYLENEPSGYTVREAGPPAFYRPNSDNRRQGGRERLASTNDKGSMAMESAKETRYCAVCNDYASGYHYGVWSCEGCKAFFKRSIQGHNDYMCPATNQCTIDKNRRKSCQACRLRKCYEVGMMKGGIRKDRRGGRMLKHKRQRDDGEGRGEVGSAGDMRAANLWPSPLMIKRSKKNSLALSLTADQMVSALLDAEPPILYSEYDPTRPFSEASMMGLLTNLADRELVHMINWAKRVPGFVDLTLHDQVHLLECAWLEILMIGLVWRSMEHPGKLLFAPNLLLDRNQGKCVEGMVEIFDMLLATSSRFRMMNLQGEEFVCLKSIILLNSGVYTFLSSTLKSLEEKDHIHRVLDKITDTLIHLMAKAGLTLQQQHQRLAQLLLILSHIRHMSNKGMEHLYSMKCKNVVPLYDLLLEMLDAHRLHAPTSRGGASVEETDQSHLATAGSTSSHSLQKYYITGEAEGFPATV

ERβ = ERβ (Homo sapiens, UniProt Q92731); experiment: as above; conditions: for IC50: concentration that antagonizes 50% of ERβ signaling activity, read-out: ERβ (IC50 nM); for logRBA ERβ: log of % relative binding affinity, estradiol = 100%
ERβ, sequence (Q92731 whole entry): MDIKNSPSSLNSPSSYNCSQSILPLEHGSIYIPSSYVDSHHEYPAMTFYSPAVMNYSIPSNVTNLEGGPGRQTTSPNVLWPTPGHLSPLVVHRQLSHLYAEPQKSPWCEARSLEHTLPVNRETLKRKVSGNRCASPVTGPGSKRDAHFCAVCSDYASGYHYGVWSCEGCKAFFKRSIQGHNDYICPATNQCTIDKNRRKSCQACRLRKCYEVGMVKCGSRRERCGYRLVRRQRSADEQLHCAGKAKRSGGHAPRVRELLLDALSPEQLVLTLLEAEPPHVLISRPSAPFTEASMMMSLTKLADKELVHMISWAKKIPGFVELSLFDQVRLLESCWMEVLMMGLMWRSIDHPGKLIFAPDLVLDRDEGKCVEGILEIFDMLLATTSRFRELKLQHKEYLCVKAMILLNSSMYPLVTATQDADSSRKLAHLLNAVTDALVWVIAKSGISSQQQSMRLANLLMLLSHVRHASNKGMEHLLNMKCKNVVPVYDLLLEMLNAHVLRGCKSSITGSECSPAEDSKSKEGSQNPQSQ

MCF-7 cell lines = experiment: MTT antiproliferative assay; type: cell-based, human; conditions: for IC50: Homo sapiens, MCF7; for SI: selectivity index [IC50(MDA-MB-231)]/[IC50(MCF-7)]
MDA-MB-231 cell lines = experiment: MTT antiproliferative assay; type: cell-based, human; conditions: Homo sapiens, MDA-MB-231
[2] = system: Ishikawa endometrial adenocarcinoma cells; experiment: Antiproliferative assay; type: cell-based; conditions: Homo sapiens, growth inhibition
Description: As SERMs profile is often associated with the stimulation of endometrial cell proliferation and an increase in the incidence of endometrial cancer (EC), the herein compounds were therefore evaluated against Ishikawa endometrial adenocarcinoma cells (Table 8, Supplementary Material Figures […]). […] However, future experimental elaboration, currently beyond the authors' experimental facilities, is required to confirm compounds' promising profiles in terms of no EC induction.

ERα [3] = molecular target: T1, ERα; experiment: ERα down-regulation immunofluorescence assay in MCF-7; type: cell-based; conditions: ERα downregulation measured in MCF-7; read-out: MCF-7 DR (IC50 nM)
[4] = system: progesterone receptor (PR); experiment: ERα functional antagonism cell assay (PR as biomarker) in MCF-7; type: cell-based; conditions: Homo sapiens, MCF7; progesterone receptor as biomarker for ERα antagonism in MCF-7
MCF-7 cells = experiment: Cell cycle distribution by flow cytometry; type: cell-based, human; conditions: 24 h
[5] = MTT antiproliferative assay (neutral control); conditions: human
[6] = calculated antagonistic (inhibitory) constant
[7] = growth inhibition, 48 h, read-out: MCF-7 (IC50 nM)
[8] = growth inhibition, 48 h, read-out: MDA-MB-231 (IC50 nM)
[9] = 1 nM as lower concentration (3DPQ-5, 3DPQ-6, 3DPQ-8)

Structure (SMILES)	IC50 (ERα [1]) [nM]	logRBA ERα (ERα [1])	IC50 (ERβ) [nM]	logRBA ERβ (ERβ)	IC50 (MCF-7 cell lines; [7]) [nM]	SI (MCF-7 cell lines)	IC50 (MDA-MB-231 cell lines; [8]) [nM]	IC50 [2] [nM]	IC50 (ERα [3]) [nM]	IC50 [4] [nM]	IC50 at 48 h [5] [nM]	further results
CC(=O)c1cc(C(=O)O[C@@H]2/C=C/C(=O)O[C@@H](O)CCC/C=C/[C@@H]3C[C@H](O)C[C@H]32)ccc1OCCN1C=Cc2ccccc2C1 [Compound 3DPQ-7, (1R,2E,6R,10E,11aS,13S,14aR)-6,13-dihydroxy-4-oxo-4,6,7,8,9,11a,12,13,14,14a-decahydro-1H-cyclopenta[f][1]oxacyclotridecin-1-yl 3-acetyl-4-(2-(isoquinolin-2(1H)-yl)ethoxy)benzoate]	0.64 ± 0.13	2.14 ^†,‡	72.34 ± 0.17	0.09 ^†,‡,§	0.78 ± 0.52	66.61 ^‡,§	52 ± 0.68	1.74 ± 0.43	> 100	> 100	> 100	Ka ERα (nM) (ERα [1]; [6]): 0.14 ^†,‡ nM; ERα potency, fold higher than Ral (ERα [1]; ratio of IC50 values): 1.16 fold; Ka ERβ (nM) (ERβ; [6]): 40.64 ^†,‡,§ nM; MCF-7 antiproliferative potency, fold higher than Ral (MCF-7 cell lines; ratio of IC50 values): 1.14 fold; Cell Cycle (%) G0/G1 (MCF-7 cells; 0.1 nM): 73.25 ± 2.54 *^,†,‡,§ %; Cell Cycle (%) G2/M (MCF-7 cells; 0.1 nM): 12.69 ± 2.64 *^,†,‡,§ %; Cell Cycle (%) S (MCF-7 cells; 0.1 nM): 14.06 ± 1.58 *^,†,‡,§ %; Cell Cycle (%) G0/G1 (MCF-7 cells; 1 nM): 75.71 ± 1.43 *^,†,‡,§ %; Cell Cycle (%) G2/M (MCF-7 cells; 1 nM): 9.53 ± 3.54 *^,†,‡,§ %; Cell Cycle (%) S (MCF-7 cells; 1 nM): 14.77 ± 1.46 *^,†,‡,§ %
CC(=O)c1cc(C(=O)O[C@@H]2/C=C/C(=O)O[C@@H](O)CCC/C=C/[C@@H]3C[C@H](O)C[C@H]32)ccc1OCCN1CCCC2CCCNC21 (stereo partly drawn) [Compound 3DPQ-8, (1R,2E,6R,10E,11aS,13S,14aR)-6,13-dihydroxy-4-oxo-4,6,7,8,9,11a,12,13,14,14a-decahydro-1H-cyclopenta[f][1]oxacyclotridecin-1-yl 3-acetyl-4-(2-(octahydro-1,8-naphthyridin-1(2H)-yl)ethoxy)benzoate]	0.81 ± 0.14	2.04 ^‡	72.3 ± 0.78	0.09 ^†,‡,§	1.06 ± 0.45	40.15 ^‡,§	42.56 ± 0.35	1.98 ± 0.32	> 100	> 100	> 100	Ki (ERα [1]; calculated antagonistic (inhibitory) constant, read-out: Ka ERα): 0.18 nM; ERα potency, fold more potent than 4-OHT (ERα [1]; ratio of IC50 values): 1.38 fold; Ki (ERβ; calculated antagonistic (inhibitory) constant, read-out: Ka ERβ): 40.6 nM; Cell Cycle (%) G0/G1 (MCF-7 cells; [9]): 72.39 ± 1.43 *^,†,‡,§ %; Cell Cycle (%) G2/M (MCF-7 cells; [9]): 15.11 ± 2.56 *^,†,‡,§ %; Cell Cycle (%) S (MCF-7 cells; [9]): 12.50 ± 1.22 *^,†,‡,§ %; Cell Cycle (%) G0/G1 (MCF-7 cells; 10 nM (3DPQ-5, 3DPQ-6, 3DPQ-8)): 74.85 ± 2.54 *^,†,‡,§ %; Cell Cycle (%) G2/M (MCF-7 cells; 10 nM (3DPQ-5, 3DPQ-6, 3DPQ-8)): 11.95 ± 2.45 *^,†,‡,§ %; Cell Cycle (%) S (MCF-7 cells; 10 nM (3DPQ-5, 3DPQ-6, 3DPQ-8)): 13.21 ± 2.15 *^,†,‡,§ %
C[C@H]1CCC/C=C/[C@@H]2C[C@H](O)C[C@H]2[C@H](O)/C=C/C(=O)O1 [BFA, Brefeldin A, reference compound]	–	–	–	–	–	–	–	–	–	–	> 100000	IC50 (MCF-7 cell lines; virtually screened NCI hits, Table S17, read-out: MCF-7 (IC50)): 9010 nM; IC50 (MDA-MB-231 cell lines; virtually screened NCI hits, Table S17, read-out: MDA-MB-231 (IC50)): > 100000 nM
